Data as given in PMC12734683 (Chemistry (Weinheim an Der Bergstrasse, Germany), 2025).
Values belong to the compound of their own block, whether it stands above or below them.

Tests used:
[1] = test system: d(5′‐CGCGAATTCGCG‐3′)2 (DNA, duplex) CGCGAATTCGCG; experiment: ethidium bromide displacement fluorescence quenching, double-log plot; conditions: 100 mM phosphate (cation not given); pH 7.0, 298 K; 20 μM DNA, 5.2 μM ethidium bromide displaced; apparent
[2] = test system: d(5′‐CGCGAATTCGCG‐3′)2 (DNA, duplex) CGCGAATTCGCG; experiment: 1H NMR titration; conditions: 100 mM phosphate (cation not given), H2O:D2O 9:1, pH 7.0, 298 K, r = 0.5-2
MCF‐7 = experiment: Cell growth assay (IncuCyte Zoom), cytotoxicity; type: cell-based, human
Procedure: (§1) The human breast adenocarcinoma cell line MCF-7 and the mouse embryonic fibroblast cell line NIH-3T3 were cultured in high- glucose Dulbecco’s modified Eagle’s medium (DMEM) supplemented with 10% fetal bovine serum and 1% penicillin/ streptomycin. The human ovarian cancer cell line A2780 and its cisplatin resistant derivative (A2780cis-res) were maintained in RPMI-1640 medium supplemented with 10% fetal bovine serum and 1% penicillin/streptomycin. All cell lines were routinely passaged every 2 – 3 days, and incubated at 37 °C in a humidified atmosphere containing 5% CO2.
(§2) Cell growth and the cytotoxic effects of the complexes were monitored using the IncuCyte Zoom system and software(Essen BioScience, Hertfordshire, United Kingdom), as previously described^84. The IC50 values of cisplatin and of the complexes were determined by fitting a log(concentration) versus normalized response curve using GraphPad Prism, version 8.01.

A2780cis‐res = experiment: Cell growth assay (IncuCyte Zoom), cytotoxicity; type: cell-based, human
Procedure: as §1, §2

A2780 = experiment: Cell growth assay (IncuCyte Zoom), cytotoxicity; type: cell-based, human
Procedure: as §1, §2

NIH-3T3 = experiment: Cell growth assay (IncuCyte Zoom), cytotoxicity to normal fibroblasts; type: cell-based, mouse; conditions: NIHT‐3T3 normal fibroblasts
Procedure: as §1, §2

- K b [1]: 602.8 ± 76.1 × 10^3 M^-1
SMILES: Cc1ccc(C(C)C)cc1.Cc1ccc(C(C)C)cc1.[Ru+2].[Ru+2].[c-]1cccc2ccc3cccnc3c12.[c-]1cccc2ccc3cccnc3c12.c1cc(CCCc2ccncc2)ccn1

- binding ([2]; groove binding at duplex ends): yes
- K b [1]: 28.51 ± 0.97 × 10^3 M^-1
SMILES: Cc1ccc(C(C)C)cc1.Cc1ccc(C(C)C)cc1.[Ru+2].[Ru+2].[c-]1cccc2ccc3cccnc3c12.c1cc(CCc2ccncc2)ccn1.c1cnc2c(c1)ccc1cccnc12

- binding ([2]; minor-groove intercalation): yes
- K b [1]: 5.59 ± 0.21 × 10^3 M^-1
SMILES: Cc1ccc(C(C)C)cc1.Cc1ccc(C(C)C)cc1.[Ru+2].[Ru+2].[c-]1cccc2ccc3cccnc3c12.c1cc(-c2ccncc2)ccn1.c1cnc2c(c1)ccc1cccnc12

- K b [1]: 807.6 ± 19.9 × 10^3 M^-1
SMILES: Cc1ccc(C(C)C)cc1.Cc1ccc(C(C)C)cc1.[Ru+2].[Ru+2].[c-]1cccc2ccc3cccnc3c12.[c-]1cccc2ccc3cccnc3c12.c1cc(-c2ccncc2)ccn1

- binding ([2]; groove binding): yes
- K b [1]: 6.70 ± 0.58 × 10^3 M^-1
SMILES: Cc1ccc(C(C)C)cc1.Cc1ccc(C(C)C)cc1.[Ru+2].[Ru+2].[c-]1cccc2ccc3cccnc3c12.c1cc(CCCc2ccncc2)ccn1.c1cnc2c(c1)ccc1cccnc12

- K b [1]: 298.4 ± 4.3 × 10^3 M^-1
SMILES: Cc1ccc(C(C)C)cc1.Cc1ccc(C(C)C)cc1.[Ru+2].[Ru+2].[c-]1cccc2ccc3cccnc3c12.[c-]1cccc2ccc3cccnc3c12.c1cc(CCc2ccncc2)ccn1

SMILES: N.N.[Cl][Pt][Cl] [cisplatin, reference compound]
- IC50 (MCF‐7; MCF‐7 cells): 14.6 ± 1.25 µM
- Selectivity index IC50(NIHT‐3T3)/IC50(MCF‐7) (MCF‐7; first of three values in the cell): 1.2
- Resistant factor IC50 (A2780cisR)/IC50(A2780) (A2780cis‐res): 7.3
- IC50 (A2780cis‐res; A2780cis‐res cells): 18.4 ± 1.59 µM
- Selectivity index IC50(NIHT‐3T3)/IC50(A2780cis‐res) (A2780cis‐res; third of three values in the cell): 0.2
- Selectivity index IC50(NIHT‐3T3)/IC50(A2780) (A2780): 0.2
- IC50 (A2780; A2780 cells): 2.54 ± 0.11 µM
- IC50 (NIH-3T3): 3.02 ± 0.36 µM
